Columns and labels:
[1] = target: T1, human sphingosine-1-phosphate receptor 1 (S1P1) (Homo sapiens (Human), UniProt P21453); assay: Inhibition of cAMP production (HTRF cAMP HiRange), S1P1 CHO-K1 cells; type: cell-based; conditions: for hS1P1 cAMP pEC50: inhibition of cAMP production, S1P1 CHO-K1 cells; for Emax: CHO-K1, efficacy (SPAN) normalized to fingolimod, read-out: hS1P1 cAMP SPAN
How it was run: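 CHO-K1 cells stably co-expressing human S1P1 (C-terminal Prolink tag) and EA-β-arrestin2 were grown in AssayComplete Media 6 at 37° C. and 5% CO2, plated, and incubated overnight. Agonist-driven inhibition of intracellular cAMP was read by TR-FRET with the HTRF cAMP HiRange kit on a PheraStar reader. Potency is pEC50, and efficacy (SPAN) is normalized to fingolimod.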
Target sequence in this assay (P21453 whole entry, looked up): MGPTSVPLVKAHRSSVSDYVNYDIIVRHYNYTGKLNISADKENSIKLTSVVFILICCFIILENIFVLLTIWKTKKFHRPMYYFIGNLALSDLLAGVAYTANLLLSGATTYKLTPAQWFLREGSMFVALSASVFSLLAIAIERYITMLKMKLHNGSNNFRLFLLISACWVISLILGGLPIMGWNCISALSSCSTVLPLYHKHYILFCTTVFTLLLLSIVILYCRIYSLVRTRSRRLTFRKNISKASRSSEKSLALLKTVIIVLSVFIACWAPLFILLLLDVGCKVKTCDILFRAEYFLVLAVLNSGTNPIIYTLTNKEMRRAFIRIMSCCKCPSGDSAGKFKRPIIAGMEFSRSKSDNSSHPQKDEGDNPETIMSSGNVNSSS

[2] = target: T1, human sphingosine-1-phosphate receptor 1 (S1P1); assay: β-Arrestin2 recruitment assay (PathHunter), S1P1 CHO-K1 cells; type: cell-based; conditions: for hS1P1 B-arrestin2 pEC50: β-arrestin2 recruitment, S1P1 CHO-K1 cells; for Emax: CHO-K1, efficacy (SPAN) normalized to fingolimod, read-out: hS1P1 B-arrestin2 SPAN
How it was run: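 Enzyme-fragment complementation read-out: agonist-driven β-arrestin2 binding to ProLink-tagged human S1P1 in stable CHO-K1 cells restores β-galactosidase, measured 1 h at room temperature after a 60 min 37° C. compound incubation. Potency as pEC50, efficacy relative to fingolimod (SPAN).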
Target sequence in this assay (P21453 whole entry, looked up): as above
Target sequence in this assay (P32121 whole entry partner, looked up): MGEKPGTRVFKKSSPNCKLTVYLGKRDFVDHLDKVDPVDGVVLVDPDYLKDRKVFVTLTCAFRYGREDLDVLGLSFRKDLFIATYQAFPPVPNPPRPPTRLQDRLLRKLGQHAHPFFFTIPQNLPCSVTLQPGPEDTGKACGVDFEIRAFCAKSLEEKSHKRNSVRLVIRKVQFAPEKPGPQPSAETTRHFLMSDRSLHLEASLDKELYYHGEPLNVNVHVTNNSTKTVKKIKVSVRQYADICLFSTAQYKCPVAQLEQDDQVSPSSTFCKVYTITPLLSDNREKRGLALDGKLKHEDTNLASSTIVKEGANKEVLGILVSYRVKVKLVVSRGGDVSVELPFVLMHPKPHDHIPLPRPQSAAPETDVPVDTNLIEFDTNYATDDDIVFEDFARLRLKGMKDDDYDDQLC

| Compound | hS1P1 cAMP pEC50 [1] | hS1P1 B-arrestin2 pEC50 [2] | Emax [1] [%] | Emax [2] [%] |
| --- | --- | --- | --- | --- |
| CC(C)n1ccc2cc(-c3noc(-c4cccnc4)n3)ccc21 [Compound 396, 3-(1-isopropyl-1H-indol-5-yl)-5-(pyridin-3-yl)-1,2,4-oxadiazole] | <6.5 | <5 |  |  |
| CC(C)n1ccc2cc(-c3noc(-c4ccccn4)n3)ccc21 [Compound 397, 3-(1-isopropyl-1H-indol-5-yl)-5-(pyridin-2-yl)-1,2,4-oxadiazole] | <6.5 | <5 |  |  |
| CC(C)n1ccc2cc(-c3noc(-c4ccncc4F)n3)ccc21 [Compound 399, 5-(3-fluoropyridin-4-yl)-3-(1-isopropyl-1H-indol-5-yl)-1,2,4-oxadiazole] | >6.5 | >5 |  |  |
| CC(C)n1ccc2cc(-c3noc(-c4ccc(F)cc4)n3)ccc21 [Compound 400, 5-(4-fluorophenyl)-3-(1-isopropyl-1H-indol-5-yl)-1,2,4-oxadiazole] | <6.5 | <5 |  |  |
| COc1ccccc1-c1csc(-c2cnc3c(ccn3C(C)C)c2)n1 [Compound 401, 2-(1-isopropyl-1H-pyrrolo[2,3-b]pyridin-5-yl)-4-(2-methoxyphenyl)thiazole] | <6.5 | <5 |  |  |
| CC(C)n1ccc2cc(-c3nc(-c4ccccc4F)cs3)cnc21 [Compound 402, 4-(2-fluorophenyl)-2-(1-isopropyl-1H-pyrrolo[2,3-b]pyridin-5-yl)thiazole] | >6.5 | <5 |  |  |
| CC(C)n1ccc2cc(-c3nc(-c4ccccc4F)cs3)ccc21 [Compound 403, 4-(2-fluorophenyl)-2-(1-isopropylindol-5-yl)thiazole] | <6.5 | <5 | < 75 | < 75 |
| CC(C)n1ccc2cc(-c3nc(-c4ccccc4C(F)(F)F)cs3)ccc21 [Compound 404, 2-(1-isopropylindol-5-yl)-4-[2-(trifluoromethyl)phenyl]thiazole] | <6.5 | <5 | > 75 | < 75 |
| COc1cccc(-c2csc(-c3ccc4c(ccn4C(C)C)c3)n2)c1 [Compound 405, 2-(1-isopropylindol-5-yl)-4-(3-methoxyphenyl)thiazole] | <6.5 | <5 |  |  |
| Cc1ccccc1-c1csc(-c2cnc3c(ccn3C(C)C)c2)n1 [Compound 407, 2-(1-isopropylpyrrolo[2,3-b]pyridin-5-yl)-4-(o-tolyl)thiazole] | <6.5 | <5 |  |  |
| CC(C)n1ccc2cc(-c3nc(-c4ccccc4C(F)(F)F)cs3)cnc21 [Compound 408, 2-(1-isopropylpyrrolo[2,3-b]pyridin-5-yl)-4-[2-(trifluoromethyl)phenyl]thiazole] | <6.5 | <5 |  |  |
| Cc1ccccc1-c1csc(-c2ccc3c(ccn3C(C)C)n2)n1 [Compound 409, 2-(1-isopropylpyrrolo[3,2-b]pyridin-5-yl)-4-(o-tolyl)thiazole] | <6.5 | <5 |  |  |
| COc1cccc(-c2csc(-c3ccc4c(ccn4C(C)C)n3)n2)c1 [Compound 410, 2-(1-isopropylpyrrolo[3,2-b]pyridin-5-yl)-4-(3-methoxyphenyl)thiazole] | <6.5 | <5 |  |  |
| COc1ccccc1-c1csc(-c2ccc3c(ccn3C(C)C)n2)n1 [Compound 411, 2-(1-isopropyl-1H-pyrrolo[3,2-b]pyridin-5-yl)-4-(2-methoxyphenyl)thiazole] | <6.5 | <5 |  |  |
| CC(C)n1ccc2nc(-c3nc(-c4ccccc4Br)cs3)ccc21 [Compound 412, 4-(2-bromophenyl)-2-(1-isopropyl-1H-pyrrolo[3,2-b]pyridin-5-yl)thiazole] | <6.5 | <5 |  |  |
| CC(C)n1nnc2cc(-c3nc(-c4ccccc4Br)no3)cnc21 [Compound 413, 3-(2-bromophenyl)-5-[3-(propan-2-yl)-3H-[1,2,3]triazolo[4,5-b]pyridin-6-yl]-1,2,4-oxadiazole] | >6.5 | >5 |  |  |

| Compound | hS1P1 cAMP pEC50 [1] | hS1P1 B-arrestin2 pEC50 [2] | Emax [1] [%] | Emax [2] [%] |
| --- | --- | --- | --- | --- |
| Cc1ccncc1-c1noc(-c2cnc3c(c2)nnn3C(C)C)n1 [Compound 414, 4-methyl-3-{5-[3-(propan-2-yl)-3H-[1,2,3]triazolo[4,5-b]pyridin-6-yl]-1,2,4-oxadiazol-3-yl}pyridine] | >6.5 | <5 |  |  |
| CCC1(CC)CC(=O)c2cc(-c3nc(-c4ccc5c(c4)CC(=O)N5)no3)ccc2O1 [Compound 416, 5-(5-(2,2-diethyl-4-oxochroman-6-yl)-1,2,4-oxadiazol-3-yl)indolin-2-one] | >6.5 | >5 |  |  |
| Cc1cccc2oc(-c3ccc4c(c3)nnn4C(C)C)nc12 [Compound 418, 2-(1-isopropyl-1H-benzo[d][1,2,3]triazol-5-yl)-4-methylbenzo[d]oxazole] | >6.5 | >5 | > 75 | > 75 |
| Cc1ccc2oc(-c3ccc4c(c3)nnn4C(C)C)nc2c1 [Compound 419, 2-(1-isopropyl-1H-benzo[d][1,2,3]triazol-5-yl)-5-methylbenzo[d]oxazole] | >6.5 | >5 | > 75 | < 75 |
| Cc1ccc2nc(-c3ccc4c(c3)nnn4C(C)C)oc2c1 [Compound 420, 2-(1-isopropyl-1H-benzo[d][1,2,3]triazol-5-yl)-6-methylbenzo[d]oxazole] | >6.5 | <5 | > 75 | > 75 |
| Cc1cccc2nc(-c3ccc4c(c3)nnn4C(C)C)oc12 [Compound 421, 2-(1-isopropyl-1H-benzo[d][1,2,3]triazol-5-yl)-7-methylbenzo[d]oxazole] | <6.5 | <5 | > 75 | < 75 |
| COc1cccc2oc(-c3ccc4c(c3)nnn4C(C)C)nc12 [Compound 424, 2-(1-isopropyl-1H-benzo[d][1,2,3]triazol-5-yl)-4-methoxybenzo[d]oxazole] | >6.5 | <5 | > 75 | > 75 |
| COc1ccc2nc(-c3ccc4c(c3)nnn4C(C)C)oc2c1 [Compound 426, 2-(1-isopropyl-1H-benzo[d][1,2,3]triazol-5-yl)-6-methoxybenzo[d]oxazole] | >6.5 | <5 | > 75 | > 75 |
| CC(C)n1nnc2cc(-c3nc4c(Cl)cccc4o3)ccc21 [Compound 427, 4-chloro-2-(1-isopropyl-1H-benzo[d][1,2,3]triazol-5-yl)benzo[d]oxazole] | <6.5 | <5 | > 75 | > 75 |
| CC(C)n1nnc2cc(-c3nc4c(Br)cccc4o3)ccc21 [Compound 428, 4-bromo-2-(1-isopropylbenzotriazol-5-yl)-1,3-benzoxazole] | <6.5 | <5 | > 75 | > 75 |
| CC(C)n1nnc2cc(-c3nc4cccc(Br)c4o3)ccc21 [Compound 429, 7-bromo-2-(1-isopropyl-1H-benzo[d][1,2,3]triazol-5-yl)benzo[d]oxazole] | <6.5 | <5 |  |  |
| CCC1(CC)C/C(=N/O)c2cc(-c3nc(-c4cccnc4)no3)ccc2O1 [Compound 430, N-[(4Z)-2,2-diethyl-6-[3-(pyridin-3-yl)-1,2,4-oxadiazol-5-yl]-3,4-dihydro-2H-1-benzopyran-4-ylidene]hydroxylamine] | <6.5 | <5 |  |  |
| CCC1(CC)C/C(=N\O)c2cc(-c3nc(-c4cccnc4)no3)ccc2O1 [Compound 431, N-[(4E)-2,2-diethyl-6-[3-(pyridin-3-yl)-1,2,4-oxadiazol-5-yl]-3,4-dihydro-2H-1-benzopyran-4-ylidene]hydroxylamine] | <6.5 | <5 |  |  |
| CC(C)n1nnc2cc(-c3nc(-c4ccccc4C(F)(F)F)co3)ccc21 [Compound 432, 1-(propan-2-yl)-5-{4-[2-(trifluoromethyl)phenyl]-1,3-oxazol-2-yl}-1H-1,2,3-benzotriazole] | >6.5 | >5 | > 75 | > 75 |
| Cc1ccccc1-c1coc(-c2ccc3c(c2)nnn3C(C)C)n1 [Compound 433, 5-[4-(2-methylphenyl)-1,3-oxazol-2-yl]-1-(propan-2-yl)-1H-1,2,3-benzotriazole] | >6.5 | >5 | > 75 | > 75 |
| CC(C)n1nnc2cc(-c3nc4c(o3)CCCc3ccccc3-4)ccc21 [Compound 434, 4-[1-(propan-2-yl)-1H-1,2,3-benzotriazol-5-yl]-5-oxa-3-azatricyclo[8.4.0.0^2,6]tetradeca-1(14),2(6),3,10,12-pentaene] | <6.5 | <5 | < 75 | > 75 |

From patent publication US11912693B2, “Compounds for modulating S1P1 activity and methods of using the same” (TREVENA, INC., priority 2017, dated 2024)
